Experimental data taken from ChEMBL document CHEMBL4321852, “Structure-Based and Property-Driven Optimization of N-Aryl Imidazoles toward Potent and Selective Oral RORγt Inhibitors” (J Med Chem, 2019).
≈ marks a conversion by molar mass, not a printed value.

Columns and labels:
[1] = Inhibition of RORgammat in rat CD4+ T-cells polarized with Th17 cytokine mix assessed as inhibition of IL-17 secretion
[2] = Distribution coefficient of the compound, high-throughput logD using octanol-buffer at pH 7.4 by LC-MS/MS analysis shake flask method; type: physicochemical
Cytochrome P450 3A4 = Cytochrome P450 3A4 (Homo sapiens, UniProt P08684); assay: Time dependent inhibition of CYP3A4 (unknown origin); type: ADME; design: concentration or dose not given beside the values
[3] = Inverse agonist activity at RORgammat in rat whole blood assessed as reduction in Con A/IL-23-stimulated IL-17 secretion after 72 hrs by ELISA
[4] = Intrinsic clearance in rat liver microsomes; type: ADME, Microsome; conditions: read-out: CLH
[5] = Lipophilicity of the compound, high-throughput logP using octanol-coated immobilized artificial membranes at pH 7.4; type: physicochemical
[6] = Equilibrium aqueous solubility of the compound in pH 6.8 solution; type: physicochemical; conditions: aqueous pH 6.8 solution
[7] = Terminal half life in Sprague-Dawley rat at 1 mg/kg, iv; type: ADME, organism-based; conditions: in vivo, read-out: beta t1/2 (converted)
[8] = Dose normalized AUC in Sprague-Dawley rat at 3 mg/kg, po; type: ADME, organism-based; conditions: in vivo
[9] = Clearance in Sprague-Dawley rat at 1 mg/kg, iv; type: ADME, organism-based; conditions: in vivo
[10] = Tmax in Sprague-Dawley rat at 3 mg/kg, po; type: ADME, organism-based; conditions: in vivo
[11] = Dose normalized AUC in Sprague-Dawley rat at 1 mg/kg, iv; type: ADME, organism-based; conditions: in vivo
[12] = Volume of distribution at steady state in Sprague-Dawley rat at 1 mg/kg, iv; type: ADME, organism-based; conditions: in vivo, read-out: Vdss
[13] = Oral bioavailability in Sprague-Dawley rat at 3 mg/kg; type: ADME, organism-based; conditions: in vivo
[14] = Dose normalized Cmax in Sprague-Dawley rat at 3 mg/kg, po; type: ADME, organism-based; conditions: in vivo

Cytochrome P450 3A4, sequence (P08684 whole entry): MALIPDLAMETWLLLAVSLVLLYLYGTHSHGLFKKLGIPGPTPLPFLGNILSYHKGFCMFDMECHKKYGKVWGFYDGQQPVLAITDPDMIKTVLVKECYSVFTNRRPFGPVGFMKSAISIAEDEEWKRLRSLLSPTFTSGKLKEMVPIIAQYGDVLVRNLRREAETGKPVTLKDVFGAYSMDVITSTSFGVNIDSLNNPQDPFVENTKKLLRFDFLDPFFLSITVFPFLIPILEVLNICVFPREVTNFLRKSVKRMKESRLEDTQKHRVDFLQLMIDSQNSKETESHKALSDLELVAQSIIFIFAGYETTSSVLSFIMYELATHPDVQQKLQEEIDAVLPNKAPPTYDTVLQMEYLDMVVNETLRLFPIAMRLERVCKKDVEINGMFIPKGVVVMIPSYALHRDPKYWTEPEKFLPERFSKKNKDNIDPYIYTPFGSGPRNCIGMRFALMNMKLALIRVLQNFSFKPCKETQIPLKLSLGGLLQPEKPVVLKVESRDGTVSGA

Compound	IC50 [1]	logD [2]	IC50 [3]	microsomal CLint [4]	logD [5]	solubility thermodynamic [6]	further results
Cc1c(C2(C(F)(F)F)CC2)nc(-c2ccc(Cl)o2)n1-c1c(Cl)ccc(NCC(C)(C)C(=O)O)c1Cl (single isomer, unassigned; atropisomer)	306 nM	3.2	79 nM	–	–	–	K (Cytochrome P450 3A4): 0.011 min⁻¹
N#Cc1cccc(C#N)c1-n1cc(C2CC2)nc1-c1cnco1	–	1.1	–	33 µL/min/mg	1.1	> 1000 µM	–
Cc1c(C(F)(F)F)nc(-c2ccc(Cl)o2)n1-c1c(Cl)ccc(N2CC(C(=O)O)C2)c1Cl (single isomer, unassigned; atropisomer)	1690 nM	2.4	4510 nM	56 µL/min/mg	2.4	> 1000 µM	half-life [7]: 276 min; AUC/dose [8]: 945 nM·h; K (Cytochrome P450 3A4): 0.047 min⁻¹; clearance [9]: 30 mL/min/kg; Tmax [10]: 78 min; AUC/dose [11]: 1179 nM·h; Vd [12]: 4 L/kg; bioavailability [13]: 80%; Cmax/dose [14]: 181 nM
CC(C)Cc1cn(-c2c(C#N)cccc2C#N)c(-c2cnco2)n1	–	2	–	153 µL/min/mg	2	350 µM (≈ 111 µg/mL)	–
Cc1c(CC(C)C)nc(-c2ccc(Cl)o2)n1-c1c(Cl)ccc(N2CC(C(=O)O)C2)c1Cl (single isomer, unassigned; atropisomer)	–	3	–	222 µL/min/mg	3	690 µM (≈ 333 µg/mL)	half-life [7]: 12 min; AUC/dose [8]: 70 nM·h; clearance [9]: 228 mL/min/kg; Tmax [10]: 36 min; AUC/dose [11]: 156 nM·h; Vd [12]: 3.6 L/kg; bioavailability [13]: 45%; Cmax/dose [14]: 166 nM
CC(C)OC(=O)[C@H](C)N(C(=O)c1ccco1)c1c(Cl)cccc1Cl	–	–	–	–	4.1	–	–
CCOC(=O)C(C)N(C(=O)c1cccs1)c1c(C)cccc1Cl (racemic)	–	–	–	–	3.6	–	–
Cc1c(C(F)(F)F)nc(-c2ccc(Cl)o2)n1-c1c(Cl)ccc(N2CC(CC(=O)O)C2)c1Cl	869 nM	2.5	696 nM	–	–	–	K (Cytochrome P450 3A4): > 0.1 min⁻¹

The next lines start with results.

IC50 [1]	logD [2]	IC50 [3]	microsomal CLint [4]	logD [5]	solubility thermodynamic [6]	Compound	further results
–	6.3	–	722 µL/min/mg	6.3	< 4 µM	Cc1c(C(F)(F)F)nc(-c2ccc(Cl)o2)n1-c1c(Cl)cccc1Cl	–
56 nM	–	82 nM	–	> 6.9	–	Cc1c(Cc2ccccc2)nc(-c2ccco2)n1-c1c(Cl)cccc1Cl	–
325 nM	> 6.9	294 nM	693 µL/min/mg	> 6.9	< 4 µM	Cc1c(CC(C)C)nc(-c2ccco2)n1-c1c(Cl)cccc1Cl	–
–	2.5	–	49 µL/min/mg	2.5	> 1000 µM	Cc1c(C(F)(F)F)nc(-c2ccc(Cl)o2)n1-c1c(Cl)ccc(N2CC(c3nnn[nH]3)C2)c1Cl	–
–	4.9	–	169 µL/min/mg	4.9	40 µM (≈ 19.7 µg/mL)	Cc1c(C(F)(F)F)nc(-c2ccc(Cl)o2)n1-c1c(Cl)ccc(N2CC(C(N)=O)C2)c1Cl (single isomer, unassigned; atropisomer)	–
